Assay results reported in US20250312271A1, “GSK-3-BETA INHIBITOR-LOADED POLYMERIC SCAFFOLDS FOR THE TREATMENT OF MUSCLE INJURIES” (Rutgers, The State University of New Jersey, priority 2024, published 2025).
Entries after “also recorded” stand apart in the source; their conditions may differ.

Key:
hMSCs [1] = test: Live/Dead quantification of hMSCs; type: cell-based, human; details: day 7, 14, 18, 0.5, 1.0, 1.5 μM
Method: (§1) Rosiglitazone (AVANDIA®) was added to the adipogenic medium at a final concentration of 1 μM before use. A PrestoBlue™ assay and a LIVE/DEAD viability/cytotoxicity kit were utilized to assess cell viability. Live and dead cell counts were obtained using a Celigo Image Cytometer. Cells were fixed in 4% PFA (paraformaldehyde) and stained with Oil Red O to measure lipid formation as a sign of adipocyte differentiation. Lipid formation was quantified by assessing the absorbance of Oil Red O at 515 nm.

ADSCs [2] = test: Live/Dead quantification of ADSCs; type: cell-based
Method: as §1

[3] = tested on: human skeletal muscle cells (hSkMCs); test: Morphological assessment of lipid droplets in hSkMCs cultured with scaffolds; type: cell-based; details: drug in both GelMA and PLGA layers
Method: Human skeletal muscle cells ([…]) (5,000 cells/cm^2) were cultured in ADM and myogenic differentiation media (myodiff) with scaffolds at 200 rpm, with and without the drug in GelMA and PLGA layers to evaluate the relationship between drug concentrations and lipid formation resulting from the drug's release from the scaffold. PrestoBlueTM assay assessed cell viability.

[4] = tested on: adipose-derived stem cells (ADSCs); test: Oil Red O quantification of lipid formation in adipogenic ADSC cultures; type: cell-based
Method: as §1

ADSCs [5] = test: PrestoBlue assay of ADSCs; type: cell-based; details: day 7, 14, 21, 0.5, 1.0, 1.5 μM
Method: as §1

[6] = tested on: bone marrow-derived human mesenchymal stem cells (hMSCs); test: Oil Red O quantification of lipid formation in adipogenic hMSC cultures; type: cell-based
Method: as §1

3T3-L1 preadipocytes = details: cited from earlier work
[7] = CHIR99021 release from polymeric scaffolds (HPLC); type: physicochemical
Method: In this study, GSK3β inhibitor-loaded scaffolds were fabricated via electrospinning and hydrogel formation. Pluronic F127 (0.08 g) was dissolved in 1.0 ml hexafluoroisopropanol (HFP) before adding the GSK3β inhibitor. Separately, poly(lactic-co-glycolic acid) PLGA (50:50) (16%, w/v) was dissolved in HFP. The polymer solutions (PLGA/CHIR-F127 or PLGA/CHIR) were electrospun at a flow rate of 1.0 ml/h with a 14 cm distance from the 18G needle tip to the cylindrical drum, and voltages +11/−2 kV were applied. Samples (13.5 mm diameter) punched out from scaffolds were immersed in GelMA (gelatin methacrylate) (5%, w/v)/CHIR solution for 20 seconds, then crosslinked using Lithium Phenyl (2,4,6-Trimethylbenzoyl) Phosphinate (LAP, 0.5% w/v) for 2 minutes on each side under 405 nm UV. Scaffolds comprise a rapidly degrading layer of GelMA for inhibitor delivery to the injury site, and a slow-degrading layer of PLGA to provide prolonged support for tissue regeneration.
Samples were submerged in water on a plate shaker at 400 rpm, with 200 μL replaced by fresh water at each time point.

hMSCs [8] = test: PrestoBlue assay of hMSCs; type: cell-based, human; details: day 7, 14, 18, 0.5, 1.0, 1.5 μM
Method: as §1

PPARγ = details: 3T3-L1 preadipocytes; cited from earlier work

Cc1cnc(-c2cnc(NCCNc3ccc(C#N)cn3)nc2-c2ccc(Cl)cc2Cl)[nH]1 [CHIR99021]
viability (Live/Dead) (hMSCs [1]): does not negatively alter
viability (Live/Dead) (ADSCs [2]; day 7, 14, 21, 0.5, 1.0, 1.5 μM): does not negatively alter
percent of dead cells, ADSCs in GM versus in 1.5 μM CHIR (ADSCs [2]; day 21, 1.5 μM CHIR): No significant difference
lipid droplet suppression, CHIR99021 in both GelMA and PLGA layers [3]: enhances this effect
difference in lipid formation in groups treated with CHIR99021 ([4]; ADSCs at 21 days, One-Way ANOVA, P=0.00003): significant difference
lipid droplet formation (Oil Red O) ([4]; ADSCs in ADM, CHIR99021 0.5, 1.0, 1.5 μM): decreases; also recorded: inhibited lipid formation
cellular metabolic activity (PrestoBlue) (ADSCs [5]): does not negatively alter
difference in lipid formation in groups treated with CHIR99021 ([6]; hMSCs at 18 day, One-Way ANOVA, P=0.0000018): significant difference
lipid droplet formation (Oil Red O) ([6]; hMSCs in ADM, CHIR99021 0.5, 1.0, 1.5 μM): decreases
differentiation of 3T3-L1 preadipocytes (Oil Red O staining) (3T3-L1 preadipocytes): blocked the differentiation
release kinetics profile ([7]; from polymeric scaffolds (PLGA nanofibers), in water): first-order
release ([7]; within 72 hours, from polymeric scaffolds): ~70%
cellular metabolic activity (PrestoBlue) (hMSCs [8]): does not negatively alter
PPARγ expression (PPARγ): induced
